From the supplement of paper PMC10307832

Key:
Experiment in all cases: relative viability (nuclei count vs DMSO), 5 days (fraction); higher = more cells survive
[1] = compound: C1COCCN1C2=NC(=NC3=C2OC4=C3C=CC=N4)C5=CC(=CC=C5)NC(=O)C6=CN=C(C=C6)N
Method in brief: (§1)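 Viability here means nuclei in treated wells divided by nuclei in vehicle wells, reported as the median across plates. Only plates with control CV below 25% and at least one doubling passed. Lung cancer cell lines in 1536-well plates were exposed to five √10-spaced library-drug doses for 5 days and counted from 4× Hoechst images in MetaXpress.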

SGI-1776 = compound: CN1CCC(CNc2ccc3ncc(-c4cccc(OC(F)(F)F)c4)n3n2)CC1 [SGI-1776]
Method in brief: as §1

Entinostat = compound: Nc1ccccc1NC(=O)c1ccc(CNC(=O)OCc2cccnc2)cc1 [Entinostat]
Method in brief: as §1

SGI-1776 + Dasatinib = compound: CN1CCC(CNc2ccc3ncc(-c4cccc(OC(F)(F)F)c4)n3n2)CC1 [SGI-1776] + Cc1nc(Nc2ncc(C(=O)Nc3c(C)cccc3Cl)s2)cc(N2CCN(CCO)CC2)n1 [Dasatinib] (partner 0.075 µM)
Method in brief: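 The day after seeding in 1536-well plates, lung cancer cell lines were treated by pin tool with a single drug, or with a fixed anchor-drug dose together with five library-drug doses (not always all listed) in √10 steps. After 5 days, a combined fix-and-stain solution (final 0.05% Triton X-100, 1% formaldehyde, 1 ug/ml Hoechst) was added. Nuclei counted on 4× images gave relative viability as treated counts over vehicle counts, reported as the median of duplicate plates.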

| Cell Line | relative viability ([1]; 0.02 µM) | relative viability ([1]; 0.06325 µM) | relative viability ([1]; 0.2 µM) | relative viability ([1]; 0.6325 µM) | relative viability ([1]; 2 µM) | relative viability (SGI-1776; 0.08 µM) | relative viability (SGI-1776; 0.8 µM) | relative viability (SGI-1776; 2.53 µM) | relative viability (SGI-1776; 8 µM) | relative viability (Entinostat; 0.02 µM) | relative viability (Entinostat; 0.06325 µM) | relative viability (Entinostat; 0.2 µM) | relative viability (Entinostat; 0.6325 µM) | relative viability (Entinostat; 2 µM) | relative viability (SGI-1776 + Dasatinib; first compound 0.08 µM) | relative viability (SGI-1776 + Dasatinib; first compound 0.8 µM) | relative viability (SGI-1776 + Dasatinib; first compound 2.53 µM) | relative viability (SGI-1776 + Dasatinib; first compound 8 µM) |
| --- | --- | --- | --- | --- | --- | --- | --- | --- | --- | --- | --- | --- | --- | --- | --- | --- | --- | --- |
| NCI-H1651 | 0.994 | 0.994 | 0.978 | 0.951 | 0.8 | 1 | 0.999 | 0.971 | 0.929 | 1.02 | 0.971 | 1.02 | 0.908 | 0.692 | 0.535 | 0.378 | 0.381 | 0.312 |
| NCI-H1666 | 1.08 | 0.994 | 0.975 | 0.826 | 0.764 | 0.98 | 1.02 | 0.98 | 0.899 | 1.1 | 1.05 | 1.08 | 0.799 | 0.514 | 0.822 | 0.791 | 0.75 | 0.711 |
| NCI-H1734 | 0.994 | 1.06 | 0.929 | 0.931 | 0.613 | 0.946 | 0.945 | 1.04 | 0.842 | 1.04 | 1.16 | 1.04 | 0.862 | 0.628 | 0.55 | 0.426 | 0.441 | 0.434 |
| NCI-H1755 | 0.997 | 1.06 | 0.999 | 0.956 | 0.841 | 0.954 | 0.993 | 0.945 | 0.819 | 0.98 | 0.94 | 0.927 | 0.665 | 0.467 | 0.454 | 0.437 | 0.351 | 0.287 |
| NCI-H1792 | 0.953 | 0.965 | 0.893 | 0.655 | 0.393 | 1.01 | 0.984 | 0.859 | 0.662 | 1.16 | 1.1 | 1.02 | 0.649 | 0.451 | 0.781 | 0.742 | 0.637 | 0.491 |
| NCI-H1793 | 0.822 | 1.01 | 0.793 | 0.876 | 0.644 | 0.815 | 1.31 | 0.931 | 0.783 | 1.03 | 1.03 | 0.966 | 0.488 | 0.405 | 0.395 | 0.332 | 0.382 | 0.405 |
| NCI-H1915 | 1.02 | 1.06 | 1 | 1.03 | 0.74 | 1.03 | 0.987 | 0.995 | 1 | 1.01 | 0.997 | 1.01 | 0.573 | 0.392 | 0.315 | 0.273 | 0.29 | 0.261 |
| NCI-H1944 | 0.96 | 1.01 | 0.931 | 0.985 | 0.918 | 0.968 | 1.06 | 0.981 | 0.739 | 0.933 | 0.851 | 0.714 | 0.321 | 0.261 | 0.223 | 0.2 | 0.223 | 0.173 |
| NCI-H1975 | 0.881 | 0.968 | 0.895 | 0.874 | 0.684 | 1.06 | 1 | 0.925 | 0.79 | 0.942 | 0.826 | 0.784 | 0.466 | 0.267 | 0.385 | 0.369 | 0.253 | 0.232 |
| NCI-H1993 | 0.981 | 0.953 | 0.797 | 0.946 | 0.736 | 0.926 | 1.04 | 0.924 | 0.733 | 0.986 | 1.02 | 0.899 | 0.805 | 0.645 | 0.584 | 0.651 | 0.55 | 0.528 |
| NCI-H2009 | 0.979 | 1.09 | 0.971 | 0.94 | 0.846 | 1.08 | 0.992 | 1.05 | 0.858 | 1.02 | 0.974 | 0.969 | 0.796 | 0.644 | 0.373 | 0.291 | 0.231 | 0.15 |
| NCI-H2023 | 1.08 | 1.13 | 0.85 | 0.83 | 0.496 | 0.983 | 1.04 | 0.853 | 0.598 | 0.849 | 0.786 | 0.495 | 0.166 | 0.0931 | 0.637 | 0.523 | 0.432 | 0.254 |
| NCI-H2085 | 0.936 | 1.03 | 1.01 | 0.946 | 0.75 | 0.95 | 1.07 | 1.03 | 0.9 | 0.98 | 0.974 | 1 | 0.756 | 0.559 | 0.248 | 0.264 | 0.243 | 0.201 |
| NCI-H2087 | 1.06 | 1.22 | 1.06 | 0.956 | 0.65 | 1.2 | 1.08 | 0.995 | 0.956 | 1.02 | 0.983 | 0.981 | 0.49 | 0.345 | 0.782 | 1.09 | 0.826 | 0.595 |
| NCI-H2126 | 0.985 | 0.981 | 1.01 | 1.01 | 0.745 | 0.967 | 1.06 | 0.983 | 0.91 | 1.04 | 1.06 | 0.951 | 0.618 | 0.503 | 0.642 | 0.635 | 0.481 | 0.434 |
